Measurements from PubChem BioAssay AID192 (DTP/NCI, 2004).
“And” between values parts separate entries of the source, which are not always exact repeats. Equal values may be shown once. Inconclusive results and toxic doses are left out. Square brackets hold non-standard residues; d marks the D form. Peptide text beside a SMILES is read from it. * marks the point of attachment. Cbz = O=C(OCc1ccccc1)*; Nva = CCC[CH](N)C(=O)O

Test system: BDF1 mice, B16 melanoma ip, median survival T/C
Experiment: NCI In Vivo Anticancer Drug Screen. Data for tumor model B16 Melanoma (intraperitoneal) in B6D2F1 (BDF1) mice
Conditions: endpoint: median survival time, higher = longer survival
Procedure, shortened: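 In this screen, activity was judged from survival or tumor size in treated versus vehicle-treated tumor-bearing mice, reported as T/C.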

[1] = dose: 75.0 mg/kg/injection, schedule: Q01DX009 (ip), vehicle: Klucel (hydroxypropylcellulose) (HPC)
[2] = dose: 150.0 mg/kg/injection, schedule: Q01DX009 (ip), vehicle: Klucel (hydroxypropylcellulose) (HPC)
[3] = dose: 300.0 mg/kg/injection, schedule: Q01DX009 (ip), vehicle: Klucel (hydroxypropylcellulose) (HPC)
[4] = dose: 100.0 mg/kg/injection, schedule: Q01DX009 (ip), vehicle: Klucel (hydroxypropylcellulose) (HPC)
[5] = dose: 200.0 mg/kg/injection, schedule: Q01DX009 (ip), vehicle: Klucel (hydroxypropylcellulose) (HPC)
[6] = dose: 400.0 mg/kg/injection, schedule: Q01DX009 (ip), vehicle: Klucel (hydroxypropylcellulose) (HPC)
[7] = dose: 12.5 mg/kg/injection, schedule: Q01DX009 (ip), vehicle: saline
[8] = dose: 25.0 mg/kg/injection, schedule: Q01DX009 (ip), vehicle: saline
[9] = dose: 50.0 mg/kg/injection, schedule: Q01DX009 (ip), vehicle: saline
[10] = dose: 100.0 mg/kg/injection, schedule: Q01DX009 (ip), vehicle: saline
[11] = dose: 50.0 mg/kg/injection, schedule: Q01DX009 (ip), vehicle: saline with Tween-80
[12] = dose: 100.0 mg/kg/injection, schedule: Q01DX009 (ip), vehicle: saline with Tween-80
[13] = dose: 200.0 mg/kg/injection, schedule: Q01DX009 (ip), vehicle: saline with Tween-80

CC(C)[C@](O)(C(=O)OCC1=CC[N+]2([O-])CC[C@@H](O)[C@@H]12)[C@H](C)O (stereo partly drawn)
T/C (dose: 12.5 mg/kg/injection, schedule: Q01DX009 (ip), vehicle: water): 105 % of control | T/C (dose: 16.0 mg/kg/injection, schedule: Q03HX008 (ip), vehicle: water): 93 % of control | T/C (dose: 16.0 mg/kg/injection, schedule: Q03HX016 (ip), vehicle: water): 96 % of control | T/C (dose: 16.0 mg/kg/injection, schedule: Q03HX024 (ip), vehicle: water): 96 % of control | T/C (dose: 25.0 mg/kg/injection, schedule: Q01DX009 (ip), vehicle: water): 117 % of control | T/C (dose: 32.0 mg/kg/injection, schedule: Q03HX008 (ip), vehicle: water): 99 % of control | T/C (dose: 32.0 mg/kg/injection, schedule: Q03HX016 (ip), vehicle: water): 94 % of control | T/C (dose: 32.0 mg/kg/injection, schedule: Q03HX024 (ip), vehicle: water): 100 % of control | T/C (dose: 64.0 mg/kg/injection, schedule: Q01DX009 (ip), vehicle: saline): 113 % of control | T/C (dose: 64.0 mg/kg/injection, schedule: Q01DX009 (ip), vehicle: water): 103 % of control | T/C (dose: 64.0 mg/kg/injection, schedule: Q03HX008 (ip), vehicle: water): 108 % of control | T/C (dose: 64.0 mg/kg/injection, schedule: Q03HX016 (ip), vehicle: water): 108 % of control | T/C (dose: 64.0 mg/kg/injection, schedule: Q03HX024 (ip), vehicle: water): 120 % of control | T/C (dose: 100.0 mg/kg/injection, schedule: Q01DX009 (ip), vehicle: saline sonified): 104 % of control | T/C (dose: 128.0 mg/kg/injection, schedule: Q01DX001 (ip), vehicle: water): 103 % of control | T/C (dose: 128.0 mg/kg/injection, schedule: Q01DX009 (ip), vehicle: saline): 113 % of control | T/C (dose: 128.0 mg/kg/injection, schedule: Q01DX009 (ip), vehicle: water): 119 % of control | T/C (dose: 128.0 mg/kg/injection, schedule: Q01DX009 (oral), vehicle: water): 95 % of control and 101 % of control | T/C (dose: 128.0 mg/kg/injection, schedule: Q03HX008 (ip), vehicle: water): 123 % of control | T/C (dose: 128.0 mg/kg/injection, schedule: Q04DX003 (ip), vehicle: water): 102 % of control | T/C (dose: 128.0 mg/kg/injection, schedule: Q08DX002 (ip), vehicle: water): 105 % of control | T/C (dose: 228.0 mg/kg/injection, schedule: Q01DX009 (ip), vehicle: saline): 119 % of control | T/C (dose: 256.0 mg/kg/injection, schedule: Q01DX009 (oral), vehicle: water): 93 % of control and 96 % of control | T/C (dose: 256.0 mg/kg/injection, schedule: Q03HX016 (ip), vehicle: water): 150 % of control | T/C (dose: 256.0 mg/kg/injection, schedule: Q04DX003 (ip), vehicle: water): 106 % of control | T/C (dose: 256.0 mg/kg/injection, schedule: Q08DX002 (ip), vehicle: water): 118 % of control | T/C (dose: 512.0 mg/kg/injection, schedule: Q01DX001 (ip), vehicle: water): 113 % of control | T/C (dose: 512.0 mg/kg/injection, schedule: Q01DX009 (ip), vehicle: water): 150 % of control and 182 % of control | T/C (dose: 512.0 mg/kg/injection, schedule: Q01DX009 (oral), vehicle: water): 94 % of control and 95 % of control | T/C (dose: 512.0 mg/kg/injection, schedule: Q08DX002 (ip), vehicle: water): 123 % of control | T/C (dose: 600.0 mg/kg/injection, schedule: Q01DX009 (ip), vehicle: water): 163 % of control | T/C (dose: 768.0 mg/kg/injection, schedule: Q01DX009 (ip), vehicle: saline): 100 % of control | T/C (dose: 800.0 mg/kg/injection, schedule: Q01DX009 (ip), vehicle: saline sonified): 150 % of control | T/C (dose: 1024.0 mg/kg/injection, schedule: Q01DX009 (oral), vehicle: water): 97 % of control and 99 % of control | T/C (dose: 2048.0 mg/kg/injection, schedule: Q08DX002 (ip), vehicle: water): 169 % of control

O=C1C=C(c2ccccc2)C(=O)C=C1c1ccccc1
T/C (dose: 6.0 mg/kg/injection, schedule: Q04DX003 (ip), vehicle: gum acacia): 100 % of control | T/C (dose: 12.0 mg/kg/injection, schedule: Q04DX003 (ip), vehicle: gum acacia): 91 % of control | T/C (dose: 25.0 mg/kg/injection, schedule: Q04DX003 (ip), vehicle: gum acacia): 92 % of control and 93 % of control

CCCC[S][Sn]([CH2]CCC)([CH2]CCC)[S]CCCC
T/C (dose: 0.19 mg/kg/injection, schedule: Q01DX009 (ip), vehicle: saline with Tween-80): 98 % of control | T/C (dose: 0.38 mg/kg/injection, schedule: Q01DX009 (ip), vehicle: saline with Tween-80): 98 % of control | T/C (dose: 0.75 mg/kg/injection, schedule: Q01DX009 (ip), vehicle: saline with Tween-80): 99 % of control

Nc1ccc(F)cc1[N+](=O)[O-]
T/C [1]: 122 % of control | T/C [2]: 105 % of control | T/C [3]: 102 % of control

CCCCCCCC(O)CCC (stereo not drawn)
T/C [4]: 105 % of control | T/C [5]: 97 % of control | T/C [6]: 93 % of control

COC1=CC(=O)C(O)=C(CC2(C)C(C)CCC3(C)C2CCCC3(C)C)C1=O (stereo not drawn)
T/C (dose: 3.12 mg/kg/injection, schedule: Q01DX009 (ip), vehicle: Klucel (hydroxypropylcellulose) (HPC)): 91 % of control | T/C (dose: 6.25 mg/kg/injection, schedule: Q01DX009 (ip), vehicle: Klucel (hydroxypropylcellulose) (HPC)): 96 % of control | T/C (dose: 12.5 mg/kg/injection, schedule: Q01DX009 (ip), vehicle: Klucel (hydroxypropylcellulose) (HPC)): 96 % of control | T/C (dose: 25.0 mg/kg/injection, schedule: Q01DX009 (ip), vehicle: Klucel (hydroxypropylcellulose) (HPC)): 104 % of control | T/C (dose: 50.0 mg/kg/injection, schedule: Q01DX009 (ip), vehicle: Klucel (hydroxypropylcellulose) (HPC)): 100 % of control | T/C [4]: 100 % of control

O=C1C(Cl)=C(N=Nc2c(Cl)c(O)c3ccccc3c2O)C(=O)c2ccccc21
T/C [7]: 89 % of control | T/C [8]: 86 % of control

C/C=C\C1OC1(C)c1cc(=O)c2c(C)cc3c(c2o1)C(=O)c1c(O)c(C2CC(C)(N(C)C)C(OC(C)=O)C(C)O2)cc(C2CC(N(C)C)C(O)C(C)O2)c1C3=O (stereo not drawn)
T/C (dose: 0.1 mg/kg/injection, schedule: Q01DX009 (ip), vehicle: saline): 100 % of control | T/C (dose: 0.2 mg/kg/injection, schedule: Q01DX009 (ip), vehicle: saline): 100 % of control | T/C (dose: 0.35 mg/kg/injection, schedule: Q01DX009 (ip), vehicle: saline with Tween-80): 88 % of control | T/C (dose: 0.4 mg/kg/injection, schedule: Q01DX009 (ip), vehicle: saline): 100 % of control | T/C (dose: 0.7 mg/kg/injection, schedule: Q01DX009 (ip), vehicle: saline with Tween-80): 95 % of control | T/C (dose: 0.8 mg/kg/injection, schedule: Q01DX009 (ip), vehicle: saline): 106 % of control

C/C(=N\[N+](C)(C)C)c1ccc(Br)cc1
T/C [8]: 88 % of control | T/C [9]: 102 % of control | T/C [10]: 94 % of control

Cc1ccc(NC(=O)COc2ccc(Cl)cc2)cc1Cl
T/C (dose: 3.13 mg/kg/injection, schedule: Q01DX009 (ip), vehicle: saline with Tween-80): 101 % of control | T/C (dose: 6.25 mg/kg/injection, schedule: Q01DX009 (ip), vehicle: saline with Tween-80): 106 % of control | T/C (dose: 12.5 mg/kg/injection, schedule: Q01DX009 (ip), vehicle: saline with Tween-80): 93 % of control and 101 % of control | T/C (dose: 25.0 mg/kg/injection, schedule: Q01DX009 (ip), vehicle: saline with Tween-80): 87 % of control | T/C [11]: 96 % of control

CCN(CC)CCOC(=O)N(c1ccccc1)c1ccccc1
T/C (dose: 6.25 mg/kg/injection, schedule: Q01DX009 (ip), vehicle: saline): 104 % of control | T/C [7]: 100 % of control | T/C [8]: 104 % of control | T/C [9]: 95 % of control | T/C [10]: 86 % of control

N=C1SCc2ccc3ccccc3c21
T/C [11]: 99 % of control | T/C [12]: 97 % of control | T/C [13]: 91 % of control | T/C (dose: 400.0 mg/kg/injection, schedule: Q01DX009 (ip), vehicle: saline with Tween-80): 89 % of control

CC(=O)NC(CO)C(=O)c1ccc(S(=O)(=O)c2ccccc2)cc1 (stereo not drawn)
T/C [12]: 102 % of control | T/C [13]: 93 % of control

CCCC(NC(=O)C(Cc1ccccc1)NC(=O)OCc1ccccc1)C(=O)O (stereo not drawn) (Cbz-Phe-[Nva]-OH; configuration not given here)
T/C [11]: 95 % of control | T/C [12]: 92 % of control

COc1ccc(/C=C/c2cnc3ccccc3n2)cc1OC
T/C [1]: 100 % of control | T/C [2]: 100 % of control | T/C [3]: 92 % of control

CCCCCCCCCCCCNC(=O)Nc1ccc(CC)cc1
T/C [4]: 92 % of control | T/C [5]: 100 % of control | T/C [6]: 100 % of control
